The experiment deals with rat aortic rings. As to the kind of experiment: Phenylepherine (PE)-induced contraction of isolated rat aortic rings (isometric tension). Type of experiment: cell-based. From the text: Male Sprague Dawley rats (250-275 g) were sacrificed by exsanguination and thoracic aortae were removed with care to avoid damage to the endothelium, dissected free of fat and connective tissue, and cut into transverse rings, each 5 mm in length (Kyong et al., 1992, Br. J. Pharmacol. 107:983-990; Yohtaro et al., 1987, Eur. J. Pharmacol. 131:75-78; Chang et al., 1992, Br. J. Pharmacol. 107:983-990; Oyama et al., 1986, Eur. J. Pharmacol. 132:75-78). The tissues were maintained in an oxygenated (95% O2; 5% CO2) solution of Krebs-Henseliet (KH) buffer (144 millimolar NaCl, 5.9 millimolar KCl, 1.6 millimolar CaCl2, 1.2 millimolar MgSO4, 1.2 millimolar KH2PO4, 25 millimolar NaHCO3, and 11.1 millimolar D-glucose). The aortic rings were mounted to record isometric tension in a 10 milliliter bath containing KH solution under continuous aeration. The aortic rings were equilibrated for 1.5 hours at 37° C. and maintained under a resting tension of 2 g throughout the experiment. Each aortic ring was then contracted by adding phenylepherine (PE) in stepwise increments raising the concentration of PE from 10^−10 molar to 10^−5 molar. […] In every experiment, aortic rings exposed to KH buffer alone were analyzed in parallel as controls. Isometric tension was evaluated using a force displacement transducer and recorded online using a computerized system (ExperimentiaAE, Budapest, Hungary).

In the case of `CNC[C@H](O)c1cccc(O)c1` [PE, phenylepherine, reference compound], under “PE alone, K-H buffer, no uPA species”, the half-maximal effective concentration (EC50) was 29 nM.

In the case of “ATF: amino terminal fragment of urokinase, amino acids 1-135, growth factor domain plus kringle, SEQ ID NO:4”, the “Contractility enhancing activity in the presence of suPAR” value (10 nM ATF + 10 nM suPAR (FIG. 3)) was “abolished”. For the same molecule, the “Potency at enhancing vascular smooth muscle tissue contractility relative to tcuPA” value (compare FIGS. 2 and 3) was found to be 6 fold.

For the molecule “GFD: growth factor domain of uPA which binds to uPAR, SEQ ID NO:2 (SNELHQVPSNCDCLNGGTCVSNKYFSNIHWCNCPKKFGGQHCEIDKS; listed as Homo sapiens)”, the “Effect upon PE-induced aortic contraction / vasoconstriction” value (10 nM uPA species (FIGS. 5A, 5B; GFD 10 nanomolar)) is on record as “did not enhance contractility”.

B1: uPA kringle: kringle domain of uPA, amino acids 47-135, SEQ ID NO:1 (protein, listed as Homo sapiens)
chain: KTCYEGNGHFYRGKASTDTMGRPCLPWNSATVLQQTYHAHRSDALQLGLGKHNYCRNPDNRRRPWCYVQVGLKPLVQECMVHDCADGK
For B1, the “Direct induction of vasoconstriction” value (uPA kringle without PE effect (FIG. 4)) is “did not induce vasoconstriction directly”.

The values are drawn from US7425534B2, “Compositions and methods for modulating muscle cell and tissue contractility” (The Trustees of the University of Pennsylvania, priority 2000, dated 2008).
